# Reference: publication PMC4289246, “Dose-dependent effects of lesogaberan on reflux measures in patients with refractory gastroesophageal reflux disease: a randomized, placebo-controlled study” (BMC Gastroenterology, 2014)
# Key:
# [1] = system: patients with GERD who had a partial response to PPI treatment; assay: 24-h impedance–pH measurement of reflux variables, crossover vs placebo; format: in vivo, human; details: for Difference in geometric mean, number of reflux episodes in supine position / Difference in geometric mean, number of reflux episodes in upright position / Difference in geometric mean, number of weakly acid reflux episodes / Difference in geometric mean, number of acid reflux episodes / Difference in geometric mean, number of mixed gas/liquid reflux episodes / Difference in geometric mean, number of pure liquid reflux episodes / Difference in geometric mean, proportion of time with esophageal pH < 4 / Difference in geometric mean, proportion of time with intragastric pH < 4 / Difference in geometric mean, proximal extent of reflux (cm) / Difference in geometric mean, total number of reflux episodes: relative to placebo; for Difference in geometric mean, number of weakly acid reflux episodes: pH 4.0–6.5; for Difference in geometric mean, number of weakly acid reflux episodes / Difference in geometric mean, number of acid reflux episodes / Difference in geometric mean, number of mixed gas/liquid reflux episodes / Difference in geometric mean, number of pure liquid reflux episodes / Difference in geometric mean, proportion of time with esophageal pH < 4 / Difference in geometric mean, proportion of time with intragastric pH < 4 / Difference in geometric mean, proximal extent of reflux (cm) / Difference in geometric mean, total number of reflux episodes: upright or supine; for Difference in geometric mean, number of acid reflux episodes: pH < 4
# Protocol: This was a randomized, double-blind, placebo-controlled, four-way crossover, phase 2a study. Patients were randomized to receive one of 10 treatment sequences each consisting of placebo and three of the four different lesogaberan doses (30, 90, 120 and 240 mg). These were given on different days, each separated by a 7–28-day washout period. […] Each dose was given twice over a 24-h period in the form of modified-release capsules: one taken 1 h before breakfast after fasting the night before, and the other taken 1 h before dinner. (Note that patients fasted overnight before each study period: no food after 22:00 and no fluids after 24:00.) Treatment with patients’ usual, regular and optimized dose of PPI was continued throughout the study.
# Impedance–pH measurements were taken for 24 h after the first administration of each dose using a Sleuth® multichannel intraluminal impedance ambulatory system (Sandhill Scientific, Inc., Highlands Ranch, CO, USA). This device includes a data logger, impedance–pH amplifiers, and a catheter consisting of two antimony pH sensors (calibrated before and after recordings were taken using standard pH 7 and pH 1 buffers) placed 5 cm above and 10 cm below the lower esophageal sphincter (LES) and eight impedance electrodes placed 2, 4, 6, 8, 10, 14, 16 and 18 cm above the LES. The electrodes are paired to measure impedance at 3, 5, 7, 9, 15 and 17 cm above the LES. The position of the LES was located by a manometric recording before the study medication or placebo was given.
# (§1) Impedance–pH readings were analysed by one investigator (JP) using dedicated software (BioVIEW Analysis®, version 5.5.4; Sandhill Scientific Inc.) and were then checked manually. This was performed in a blinded manner and the results were used to determine the number of reflux episodes, defined as a period when impedance decreased to less than 50% of baseline (liquid episode) or increased to more than 150% of baseline (gas episode), propagating […] from the most distal channel. Acid, weakly acid and non-acid reflux episodes were defined as episodes lasting longer than 5 s with a pH of < 4, 4.0–6.5 and > 6.5, respectively. The decision to use a cautious cut-off pH of 6.5 was taken in order to ensure that no measurements near to a pH of 7 would be erroneously categorized as weakly acidic. These definitions have previously been employed for studies of this type. During the 24-h period of ambulatory impedance–pH measurement, patients used a data logger and a diary card to record their meal intake and periods in supine position, as well as any GERD symptoms.
# The effect of each dose of lesogaberan was measured as the proportional difference, relative to placebo, in the geometric mean of the reflux variables assessed over 24 h. The analysis was based on a mixed-effect model with treatment, period and sequence as fixed effects and patient as a random effect. Geometric means and relative differences in geometric means were reported with 95% CIs. A p value of < 0.05 was considered to indicate statistical significance and no corrections for multiple testing were performed. Multiplicity was accounted for by using a step-down sequential procedure comparing lesogaberan doses with placebo, starting at a 240 mg dose and, in the event of rejection of the null hypothesis, comparison of descending doses.
# [2] = system: patients with GERD who had a partial response to PPI treatment; assay: GERD symptoms recorded by data logger and diary card during 24-h measurement; format: in vivo, human
# Protocol: as §1
# [3] = set-up: method as in PMID 21410297; details: approximately; cited from earlier work
# [4] = 30 mg twice in 24 h, add-on to PPI
# [5] = 90 mg twice in 24 h, add-on to PPI
# [6] = 120 mg twice in 24 h, add-on to PPI
# [7] = 240 mg twice in 24 h, add-on to PPI
smiles,measurement,setting,value
"NC[C@@H](F)C[PH](=O)O [lesogaberan, (R)-(3-amino-2-fluoropropyl) phosphinic acid]","Difference in geometric mean, number of reflux episodes in supine position",[1]; [4],-37.3%
same,"Difference in geometric mean, number of reflux episodes in upright position",[1]; [4],-25.2%
same,"Difference in geometric mean, number of weakly acid reflux episodes",[1]; [4],-28.3%
same,"Difference in geometric mean, number of acid reflux episodes",[1]; [4],-34.7%
same,"Difference in geometric mean, number of mixed gas/liquid reflux episodes",[1]; [4],-25.0%
same,"Difference in geometric mean, number of pure liquid reflux episodes",[1]; [4],-27.9%
same,"Difference in geometric mean, proportion of time with esophageal pH < 4",[1]; [4],-69.8%
same,"Difference in geometric mean, proportion of time with intragastric pH < 4",[1]; [4],+40.4%
same,"Difference in geometric mean, proximal extent of reflux (cm)",[1]; [4],-39.1%
same,"Difference in geometric mean, total number of reflux episodes",[1]; [4],-26.2%
same,reduction in the mean number of pure liquid reflux episodes relative to placebo,[1]; [5],53.0%
same,reduction in the mean number of total reflux episodes relative to placebo,[1]; [5],approximately 37%
same,"Difference in geometric mean, number of reflux episodes in supine position",[1]; [5],-12.3%
same,"Difference in geometric mean, number of reflux episodes in upright position",[1]; [5],-38.4%
same,"Difference in geometric mean, number of weakly acid reflux episodes",[1]; [5],-31.4%
same,"Difference in geometric mean, number of acid reflux episodes",[1]; [5],-45.5%
same,"Difference in geometric mean, number of mixed gas/liquid reflux episodes",[1]; [5],-28.3%
same,"Difference in geometric mean, number of pure liquid reflux episodes",[1]; [5],-53.0%
same,"Difference in geometric mean, proportion of time with esophageal pH < 4",[1]; [5],-56.1%
same,"Difference in geometric mean, proportion of time with intragastric pH < 4",[1]; [5],+23.7%
same,"Difference in geometric mean, proximal extent of reflux (cm)",[1]; [5],-58.9%
same,"Difference in geometric mean, total number of reflux episodes",[1]; [5],-37.0%
same,reduction in the mean number of pure liquid reflux episodes relative to placebo,[1]; [6],44.1%
same,"Difference in geometric mean, number of reflux episodes in supine position",[1]; [6],-31.2%
same,"Difference in geometric mean, number of reflux episodes in upright position",[1]; [6],-46.1%
same,"Difference in geometric mean, number of weakly acid reflux episodes",[1]; [6],-44.5%
same,"Difference in geometric mean, number of acid reflux episodes",[1]; [6],-57.9%
same,"Difference in geometric mean, number of mixed gas/liquid reflux episodes",[1]; [6],-42.5%
same,"Difference in geometric mean, number of pure liquid reflux episodes",[1]; [6],-44.1%
same,"Difference in geometric mean, proportion of time with esophageal pH < 4",[1]; [6],-65.7%
same,"Difference in geometric mean, proportion of time with intragastric pH < 4",[1]; [6],+3.6%
same,"Difference in geometric mean, proximal extent of reflux (cm)",[1]; [6],-66.3%
same,"Difference in geometric mean, total number of reflux episodes",[1]; [6],-45.0%
same,reduction in the mean number of pure liquid reflux episodes relative to placebo,[1]; [7],51.9%
same,"Difference in geometric mean, number of reflux episodes in supine position",[1]; [7],-69.1%
same,"Difference in geometric mean, number of reflux episodes in upright position",[1]; [7],-50.7%
same,"Difference in geometric mean, number of weakly acid reflux episodes",[1]; [7],-45.1%
same,"Difference in geometric mean, number of acid reflux episodes",[1]; [7],-57.1%
same,"Difference in geometric mean, number of mixed gas/liquid reflux episodes",[1]; [7],-56.7%
same,"Difference in geometric mean, number of pure liquid reflux episodes",[1]; [7],-51.9%
same,"Difference in geometric mean, proportion of time with esophageal pH < 4",[1]; [7],-73.0%
same,"Difference in geometric mean, proportion of time with intragastric pH < 4",[1]; [7],+27.7%
same,"Difference in geometric mean, proximal extent of reflux (cm)",[1]; [7],-63.3%
same,"Difference in geometric mean, total number of reflux episodes",[1]; [7],-52.8%
same,effect on mean number of pure gas reflux episodes relative to placebo,"[1]; 30, 90, 120, 240 mg twice in 24 h, data not shown",No significant effect
same,effect on mean number of non-acid reflux episodes relative to placebo,"[1]; 30, 90, 120, 240 mg twice in 24 h, pH > 6.5, data not shown",No significant effect
same,"reduction relative to placebo in the mean number of reflux episodes, supine position","[1]; highest dose (240 mg) twice in 24 h, add-on to PPI",69.1%
same,median number of symptoms reported during dosing,[2]; 30 mg twice in 24 h,1.0 symptom
same,median number of symptoms reported during dosing,[2]; 90 mg twice in 24 h,1.0 symptom
same,median number of symptoms reported during dosing,[2]; 120 mg twice in 24 h,0 symptoms
same,median number of symptoms reported during dosing,[2]; 240 mg twice in 24 h,0.5 symptoms
same,pharmacological half-life,[3],11–13 h
